{
  "source": "patent US10316019B2",
  "about": "“Method for preparing the anhydrous crystalline form of isoniazid-derived hydrazone, thus produced crystalline polymorph of the anyhydrous form, use thereof for the treatment of alzheimer's disease, parkinsonism and other neurodegenerative disorders, and pharamceutical composition” (FACULDADDES CATÓLICAS, Associação sem fins Lucrativos, …, priority 2014, dated 2019)",
  "key": {"[1]": {"test_system": "β-amyloid peptide and Zn(II)", "experiment": "2D 1H×15N HSQC NMR competition for Zn(II) bound to β-amyloid peptide", "format": "binding"}, "[2]": {"test_system": "α-synuclein and Cu(II)/Cu(I)", "experiment": "1H NMR competition for Cu(II)/Cu(I) bound to α-synuclein", "format": "binding"}, "[3]": {"test_system": "Wistar male rats", "experiment": "Acute toxicity test, intraperitoneal injection", "format": "in vivo", "conditions": "i.p. up to 300 mg kg^−1, Wistar male rats"}},
  "data": [
    {"smiles": "O=C(N/N=C/c1ccc2cccc(O)c2n1)c1ccncc1", "note": "[INHHQ, 8-hydroxyquinoline-2-carboxaldehyde isonicotinoyl hydrazone]", "values": [
      {"measurement": "Direct interaction with β-amyloid peptide", "setting": "[1]; 1D and 2D NMR", "value": "does not interact directly"},
      {"measurement": "Effect on Aβ HSQC signals in the presence of Zn(II) (Zn(II)-Aβ interaction)", "setting": "[1]; INHHQ 4 eq. added to β-amyloid peptide + Zn(II) 1 eq.", "value": "partial intensity recovery for all Aβ signals"},
      {"measurement": "Direct interaction with α-synuclein", "setting": "[2]; 1D and 2D NMR", "value": "does not interact directly"},
      {"measurement": "Effect on α-synuclein methionine 1H NMR signals in the presence of copper (Cu-α-synuclein interaction)", "setting": "[2]; INHHQ 4 eq. added to α-synuclein + Cu(II)/Cu(I) 1 eq.", "value": "recovery of the original methionine signals' position"},
      {"measurement": "Behavioral changes", "setting": "[3]; 72 h", "value": "no behavioral changes"},
      {"measurement": "Macroscopic organ abnormalities at dissection", "setting": "[3]; after sacrifice", "value": "no macroscopic abnormalities"}
    ]}
  ]
}
